Data taken from US7807368B2, “Cyclin-dependent kinase inhibitors as targets for opiod growth factor treatment” (priority 2006, dated 2010).

What was measured:
Format in all cases: cell-based, human
[1] = system: SCC-1 cells; assay: siRNA knockdown of OGFr, growth of SCC-1 cells; settings: 10^-6 M; for depression of growth: 96 h
Method: siRNA knockdown of OGFr. […] For transfection, 5×10^4 cells per well were seeded in 6-well plates containing 1 ml of serum-containing media without antibiotics. In each well, 20 nM OGFr-siRNA or control siRNA solutions in serum-free media were added. Cells were incubated for 4 h at 37° C. prior to the addition of OGF. Cultures were incubated an additional 20 h, and then 1 ml fresh complete media either lacking or containing OGF was added. […] Two independent experiments were conducted. The control siRNAs were purchased from Ambion.

[2] = system: p16; assay: Western blot of p16 in SCC-4 cells; settings: SCC-4 cells, 3 h
Method: The SCC-1 (UM-SCC-1) cell line was obtained from the University of Michigan Cancer Research Laboratory, and CAL-27 and SCC-4 cells were obtained from the American Type Culture Collection (Manassas, Va.). SCC-1 and CAL-27 cells were cultured in DMEM media, whereas SCC-4 cells were grown in 1:1 Hams F-12 DMEM media. All media was supplemented with 10% fetal bovine serum (HyClone, Logan, Utah), 1.2% sodium bicarbonate, and 5000 units/ml penicillin, 5 μg/ml streptomycin and 10 μg/ml neomycin. OGF was purchased from Sigma-Aldrich (St. Louis, Mo.), dissolved in sterile water, and used at a final concentration of 10^−6 M.
Synchronized cells (˜2×10^6) from each treatment were solubilized in 200 μl RIPA buffer (1×PBS, 10 μM IGEPAL, 1 mg/ml SDS, 5 mg/ml deoxycholic acid), containing protease and phosphatase inhibitors (2 μg/ml aprotinin, 3 mg/ml phenylmethyl sulfonyl fluoride (PMSF), 1 mM sodium orthovanidate, 1 μM okadaic acid). Total protein concentrations were measured using the DC protein assay kit (Bio-Rad Laboratories, Hercules, Calif.). Equal amounts of protein (40 μg) were subjected to 10% SDS-PAGE followed by transfer of proteins onto polyvinylidene difluoride (Millipore, Billerica, Mass.) using standard protocols. […]

[3] = system: Cdk2 kinase activity; assay: Immunoprecipitation and H1 kinase assay (Cdk2 kinase activity) in BxPC-3 cells
Method: To quantify expression levels or kinase activity, the optical density of each band was determined by densitometry and analyzed by QuickOne (Bio-Rad Laboratories). Each value was normalized to β-actin from the same blot. To report the changes due to OGF treatment, we calculated the fold increase by dividing the normalized value from the OGF treated samples by the normalized value of control samples at each time point; thus, increases due to OGF have values greater than one, and decreases due to OGF have values less than one. For all Western blot analyses, 3 or more independent experiments were performed.
To immunoprecipitate protein complexes, cell extracts were prepared as follows: 2×10^6 cells per sample were rinsed in cold PBS followed by lysis in 200 μl immunoprecipitation buffer (1% NP-40, 10 mM HEPES (pH 7.5), 200 mM NaCl, 5 mM EDTA, 50 mM NaF, 0.2 mM sodium orthovanidate, 1 mM phenylmethyl sulfonyl fluoride, 2 mM dithiothreitol), 1× Halt™ protease inhibitorcocktail (Pierce, Rockford, Ill.)). For each immunoprecipitation reaction mixture, a total of 500 μg of protein extract was used. To each sample, 50 μl of protein A beads (Santa Cruz Biotechnology) were added and incubated at 40° C. for 30 min with rotation. Beads were removed by centrifugation at 14000 rpm for 15 s. The lysates were then subjected to immunoprecipitation using 10 μl of polyclonal antibody against Cdk2 and incubated at 40° C. for 1.5 hours with rotation, followed by addition of 20 μl of protein A beads as the immune complex binding agent.
Samples were further incubated at 40 C for 1 hour with rotation. Beads were pelleted by centrifugation at 14000 rpm for 15 s, washed three times with 500 μl ice-cold immunoprecipitation wash buffer (1% NP-40, 50 mM HEPES, 150 mM NaCl, 1 mM EDTA, 1 mM dithiothreitol), and followed by two washes with ice-cold H1 kinase buffer (50 mM HEPES (pH 7.5), 10 mM MgCl2, 10 mM MnCl2, 1 mM dithiothreitol). Immunoprecipitates were incubated with 10 μCi γ^32P-ATP, and 1 μg of histone H1 (Roche) as the substrate for Cdk2. After incubation for 30 min at 30° C., with occasional mixing, the reaction was stopped by the addition of 2× sample loading buffer (Santa Cruz Biotechnology). Proteins were separated by a 12% SDS-PAGE gel, and the Cdk2 kinase activity pattern was visualized by autoradiography of phosphorylated H1.

## [Met^5]-enkephalin [OGF]
[1]; SCC-1 cells subjected to OGFr-siRNA
  effect on growth of OGFr-siRNA cultures: no further effects
[1]; control siRNA-treated SCC-1 cells
  depression of growth: 46%
[1]; wt SCC-1 cells
  depression of growth: 29%
[2]
  p16 expression relative to synchronized control cells: induced p16 expression
[3]; OGF for 15, 18 or 21 hours (FIG. 5)
  Cdk2 kinase activity vs control cells at each respective time point: significantly reduced
[3]; OGF for 15 hours
  decrease in Cdk2 kinase activity compared to control: 78%
[3]; OGF for 18 hours
  decrease in Cdk2 kinase activity compared to control: 46%
[3]; OGF for 21 hours
  decrease in Cdk2 kinase activity compared to control: 82%
